Laboratory results taken from PubChem BioAssay AID179 (DTP/NCI, 2004).
Activity calls are given as the source filed them.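 Rule for the calls: active = compounds giving half or more protection of infected cells from virus-caused growth loss, again on retest; inactive = the rest.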

Tested on: CEM cells HIV-1 protection, formazan growth assay
Assay: NCI AIDS Antiviral Assay
Conditions: for IC50: measured here: growth of uninfected CEM cells
Summary of the method: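 Screen of anti-HIV-1 activity in human CEM cells using a formazan-based growth measurement at five drug concentrations. Hits with 50% or greater protection were repeated, and confirmation required reproducible complete protection.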

SMILES	EC50 [µM]	IC50 [µM]	outcome
CC(C)(C)c1cc(C(C)(C)C)c(P=C(Cl)Cl)c(C(C)(C)C)c1 (stereo not drawn)	> 100	> 100	
CC[n+]1c2ccc(C)cc2nc2c3ccccc3c(N)cc21	> 200	1.02	
O=C(N[C@@H](c1ccccc1)[C@@H](O)C(=O)OCc1ccc([N+](=O)[O-])cc1)c1ccccc1	> 200	151	
O=C(NCCCN(CCCCN(CCCNC(=O)C(F)(F)F)Cc1ccc2ccccc2c1)Cc1ccc2ccccc2c1)C(F)(F)F			inactive
CCCCN1C[C@H](OC(=O)CCC)[C@@H](OC(=O)CCC)[C@H](OC(=O)CCC)[C@H]1COC(=O)CCC	> 200	> 200	
c1ccc2c3nc4ccccc4c-3scc2c1	> 56.2	6.46	
CC(C)(C)OC(=O)N[C@@H]1C(=O)N2CCCOC12 (stereo partly drawn)			inactive
O=[N+]([O-])c1ccc(/C=c2\sc3scc(-c4ccc([N+](=O)[O-])cc4)[n+]3\c2=C/c2ccc([N+](=O)[O-])cc2)cc1	> 200	97.7	
O=C(CCC(=O)Nc1ccccc1C(F)(F)F)N/N=C1\C(=N\NC(=O)CCC(=O)Nc2ccccc2C(F)(F)F)C(c2ccc3c(c2)OCO3)Oc2ccccc21 (stereo not drawn)	> 23.4	> 23.4	
C=CCN(Cc1ccncc1)C(=O)C(O)(c1ccccc1)c1ccccc1	> 200	186	
CN(C)C=C1C(=O)c2ccccc2C1=O	> 35.5	> 35.5	
CCOC(=O)c1cnc2c3c(noc13)CCC2	> 200	34.7	
Cn1ccc(C(=O)NCCN(CCNC(=O)c2ccn(C)c(=O)c2O)CCNC(=O)c2cccc(=O)n2O)c(O)c1=O	> 200	> 200	
O=C(NCCCCNCCCNC(=O)OCc1ccccc1)OCc1ccccc1	> 200	33.1	
Nc1nc(N)nc(CC(=O)O)n1	> 200	> 200	
COC(=O)C1(C)CCCC2(C)c3cc(OC)ccc3C(=O)C(Cl)C12 (stereo not drawn)	> 200	30.2	
Cc1ccc(S(=O)(=O)C(C#N)c2nc3ccccc3nc2-n2ccnc2)cc1 (stereo not drawn)	> 200	155	
O=c1cnn2c(n1)sc1ccc3ccccc3c12	> 50.1	> 50.1	

SMILES	EC50 [µM]	IC50 [µM]	outcome
Cc1ccc(S[C@@](C=O)(NC(=O)OCc2ccccc2)C(F)(F)F)cc1			inactive
C=CCn1c2c(c3ccccc3c1=O)C(=O)c1ccccc1-2	> 91.2	> 91.2	
Nc1nc(N)c(-c2ccc(Cl)cc2)c(CCC(=O)Nc2cccc(C(F)(F)F)c2)n1	> 12	> 12	
COc1ccc2c(c1)C(O)(C(F)(F)F)c1cc(C(=O)C(F)(F)F)c3ccccc3c1N2 (stereo not drawn)	> 6.17	> 6.17	
CCC/C(Cl)=N\OC(=O)Nc1ccc(F)cc1	> 20	2.82	
CNS(=O)(=O)NNS(=O)(=O)c1cccc([N+](=O)[O-])c1	> 83.2	> 83.2	
O=C(c1ccc(Br)cc1)n1c2ccc(Br)cc2c2nc3ccccc3nc21	> 50.1	> 50.1	
CCOP(=O)(OCC)/C(C#N)=C/c1ccc(OC)cc1	> 316	> 316	
CN(/N=C/c1cccc2cccnc12)c1ccc([N+](=O)[O-])cc1[N+](=O)[O-]			inactive
CC(C)Cn1cnc2c(Cl)nc3ccccc3c21	> 200	41.7	
O=S(=O)(c1ccccc1)N1C2CCCC21 (stereo not drawn)			inactive
Nc1ccc(S(=O)(=O)Cc2ccc(C(=O)O)cc2[N+](=O)[O-])cc1	> 107	> 107	
COC1[C@@H](OC(C)=O)[C@@H](NC(=O)C(Cl)(Cl)Cl)C(I)[C@@H](N2C(=O)c3ccccc3C2=O)[C@H]1OC (stereo partly drawn)	> 200		
CC(=N)OC1CC2CCC1(C)C2(C)C (stereo not drawn)	> 200	> 200	
CC(C)N1C(C)[C@@H](c2ccccc2)O[P@@]1(=O)/C=C/C[C@H]1CC(=O)CCN1Cc1ccccc1 (stereo partly drawn)			inactive
CNC(=O)OCCN1c2ccccc2Sc2ccccc21	> 200	77.6	
C=C1CC[N+]2(CCCCCC)CCCC12 (stereo not drawn)	> 871	126	
